Experimental data taken from US20040023994A1 (priority 2002, published 2004).
Like-named read-outs stand apart in the source and are kept apart here. Marks after values point to notes of the source that are not given here.

Legend:
[1] = test system: Heterozygous nude CD-1 male mice; test: Hematology analyses in treated mice; conditions: i.p.; for change in peripheral white blood cell counts: trans-AVTG: only 21.25 μmol/kg two cycles, 6-TG: 8.5 or 21.25 μmol/kg one cycle or 21.25 μmol/kg two cycles
Experimental: Heterozygous nude CD-1 male mice were treated (i.p.) with multiple doses consisting of either one dose daily for three consecutive days (cis-AVTP or trans-AVTG, 21.25 μmol/kg, 6-TG, 8.5 or 21.25 μmol/kg, or vehicle; one cycle), or one dose daily for three consecutive days, repeated again five days later (cis-AVTP, trans-AVTG or 6-TG, 8.5 or 21.25 μmol/kg, or vehicle; two cycles).
The mice were sacrificed 24 h after the last treatment. Urine was collected for 24 h before initiation of treatment and every 24 h thereafter until the mice were sacrificed. Blood was collected by cardiac puncture and blood cells counted. Sections of liver, kidney, intestines, stomach and sternum were stained with hematoxylin and eosin and subjected to pathological analysis. Bone marrow smears were prepared for assessment of bone marrow cellularity. Liver function was evaluated by measuring alanine aminotransferase-(ALT) and aspartate aminotransferase (AST) activities in plasma. Kidney function was evaluated by measuring blood urea nitrogen in plasma and γ-glutamyltransferase activity and glucose levels in urine.

IGR-OV1 [2] = conditions: for CC50: read-out: LC50
OVCAR-3 [3] = conditions: for CC50: read-out: LC50
OVCAR-4 = conditions: for CC50: read-out: LC50
786-0 = conditions: for CC50: read-out: LC50
SF-295 = conditions: for CC50: read-out: LC50
SNB-19 [4] = conditions: for CC50: read-out: LC50
SNB-75 [5] = conditions: for CC50: read-out: LC50
IGR-OV1 [6] = conditions: IGR-OV1, Ovarian, NCI database, cited from earlier work; for CC50: read-out: LC50 (the source's name)
OVCAR-3 [7] = conditions: OVCAR-3, Ovarian, NCI database, cited from earlier work; for CC50: read-out: LC50 (the source's name)
SK-OV-3 = conditions: SK-OV-3, Ovarian, NCI database, cited from earlier work; for CC50: read-out: LC50 (the source's name)
KM12 = conditions: KM12, Colon, NCI database, cited from earlier work; for CC50: read-out: LC50 (the source's name)
ACHN = conditions: Renal, NCI database, cited from earlier work; for CC50: read-out: LC50 (the source's name)
CAKI-1 = conditions: CAKI-1, Renal, NCI database, cited from earlier work; for CC50: read-out: LC50 (the source's name)
UO-31 = conditions: UO-31, Renal, NCI database, cited from earlier work; for CC50: read-out: LC50 (the source's name)
SK-MEL-5 = conditions: SK-MEL-5, Melanoma, NCI database, cited from earlier work; for CC50: read-out: LC50 (the source's name)
UACC-62 = conditions: UACC-62, Melanoma, NCI database, cited from earlier work; for CC50: read-out: LC50 (the source's name)
SF-268 = conditions: SF-268, CNS, NCI database, cited from earlier work; for CC50: read-out: LC50 (the source's name)
SNB-19 [8] = conditions: SNB-19, CNS, NCI database, cited from earlier work; for CC50: read-out: LC50 (the source's name)
SNB-75 [9] = conditions: SNB-75, CNS, NCI database, cited from earlier work; for CC50: read-out: LC50 (the source's name)
[10] = Homo sapiens, 48 h, read-out: LC50

## CC(=O)C=CSc1ncnc2nc[nH]c12 [cis-AVTP, 6-(2-acetylvinylthio) purine]
[1]; 8.5 μmol/kg, two cycles
  PLT: 1160 ± 349 × 10^3 cells/μl
  RBC: 9.5 ± 0.3 × 10^6 cells/μl
  WBC: 5.9 ± 2.3 × 10^3 cells/μl
[1]; 21.25 μmol/kg, one cycle
  PLT: 1644 ± 253^a × 10^3 cells/μl
  RBC: 8.9 ± 0.6^a × 10^6 cells/μl
  WBC: 8.0 ± 1.2^a × 10^3 cells/μl
[1]; 21.25 μmol/kg, two cycles
  PLT: 1257 ± 335 × 10^3 cells/μl
  RBC: 9.0 ± 0.5 × 10^6 cells/μl
  WBC: 8.4 ± 1.9 × 10^3 cells/μl
[1]
  change in peripheral white blood cell counts: No change
IGR-OV1 [2]; Homo sapiens, IGROV-1, 48 h
  GI50: 2 µM
  CC50: 29.8 µM
IGR-OV1 [2]; IGR-OV1, Ovarian, 48 h
  TGI: 7.72 µM
OVCAR-3 [3]; Homo sapiens, OVCAR-3, 48 h
  GI50: 0.03 µM
  CC50: 8.67 µM
OVCAR-3 [3]; OVCAR-3, Ovarian, 48 h
  TGI: 0.47 µM
OVCAR-4; Homo sapiens, OVCAR-4, 48 h
  GI50: 0.51 µM
  CC50: 25.6 µM
OVCAR-4; OVCAR-4, Ovarian, 48 h
  TGI: 4.06 µM
786-0; 786-0, Renal, 48 h
  TGI: 3.48 µM
786-0; Homo sapiens, 786-0, 48 h
  GI50: 0.37 µM
  CC50: 24.9 µM
LOX IMVI; Homo sapiens, 48 h
  GI50: 0.03 µM
LOX IMVI; [10]
  CC50: > 100 µM
LOX IMVI; Melanoma, 48 h
  TGI: 2.23 µM
SF-295; Homo sapiens, SF-295, 48 h
  GI50: 0.56 µM
  CC50: 57.8 µM
SF-295; SF-295, CNS, 48 h
  TGI: 11.2 µM
SNB-19 [4]; Homo sapiens, SNB-19, 48 h
  GI50: 3.66 µM
  CC50: 76.3 µM
SNB-19 [4]; SNB-19, CNS, 48 h
  TGI: 18.2 µM
SNB-75 [5]; Homo sapiens, SNB-75, 48 h
  GI50: 4.19 µM
  CC50: 49.1 µM
SNB-75 [5]; SNB-75, CNS, 48 h
  TGI: 18.6 µM
SR; Homo sapiens, 48 h
  GI50: 0.17 µM
SR; [10]
  CC50: > 100 µM
SR; Leukemia, 48 h
  TGI: >100 µM

## CC(=O)C=CSc1nc(N)nc2nc[nH]c12 [trans-AVTG, 6-(2-acetylvinylthio) guanine]
IGR-OV1 [2]; IGR-OV1, Ovarian, 48 h
  GI50: 0.03 µM
  TGI: 0.08 µM
  CC50: 7.86 µM
OVCAR-3 [3]; OVCAR-3, Ovarian, 48 h
  GI50: 0.24 µM
  TGI: 0.63 µM
  CC50: 12.1 µM
OVCAR-4; OVCAR-4, Ovarian, 48 h
  GI50: 2.46 µM
  TGI: 17.0 µM
  CC50: 45.1 µM
786-0; 786-0, Renal, 48 h
  GI50: 0.98 µM
  TGI: 21.9 µM
  CC50: > 100 µM
LOX IMVI; Melanoma, 48 h
  GI50: 0.2 µM
  TGI: 2.39 µM
LOX IMVI; read-out: LC50, Melanoma, 48 h
  CC50: 82.5 µM
SF-295; SF-295, CNS, 48 h
  GI50: 0.43 µM
  TGI: 0.92 µM
  CC50: 82.9 µM
SNB-19 [4]; SNB-19, CNS, 48 h
  GI50: 18.7 µM
  TGI: 50.9 µM
  CC50: > 100 µM
SNB-75 [5]; SNB-75, CNS, 48 h
  GI50: 9.17 µM
  TGI: >100 µM
  CC50: > 100 µM
SR; Leukemia, 48 h
  GI50: 0.09 µM
  TGI: 10.2 µM
SR; read-out: LC50, Leukemia, 48 h
  CC50: > 100 µM

## Nc1nc2nc[nH]c2c(=S)[nH]1 [6-TG, 6-thioguanine]
[1]; 8.5 μmol/kg, one cycle
  PLT: 1172 ± 161 × 10^3 cells/μl
  RBC: 8.3 ± 0.4 × 10^6 cells/μl
  WBC: 4.8 ± 1.2 × 10^3 cells/μl
[1]; 8.5 μmol/kg, two cycles
  PLT: 906 ± 140 × 10^3 cells/μl
  RBC: 8.3 ± 0.2 × 10^6 cells/μl
  WBC: 5.3 ± 1.6 × 10^3 cells/μl
[1]; 21.25 μmol/kg, one cycle
  PLT: 752 ± 416^b × 10^3 cells/μl
  RBC: 8.4 ± 0.6^a × 10^6 cells/μl
  WBC: 3.8 ± 1.1^b,* × 10^3 cells/μl
[1]; 21.25 μmol/kg, two cycles
  PLT: 1351 ± 126 × 10^3 cells/μl
  RBC: 8.0 ± 0.3 × 10^6 cells/μl
  WBC: 3.6 ± 0.1 × 10^3 cells/μl
[1]
  change in peripheral white blood cell counts: reduced white blood cell counts
IGR-OV1 [6]
  GI50: 4.79 µM
  TGI: >100 µM
  CC50: > 100 µM
OVCAR-3 [7]
  GI50: 0.71 µM
  TGI: 6.68 µM
  CC50: > 100 µM
SK-OV-3
  GI50: 0.54 µM
  TGI: 16.4 µM
  CC50: > 100 µM
KM12
  GI50: 1.72 µM
  TGI: 31.5 µM
  CC50: > 100 µM
ACHN
  CC50: > 100 µM
  GI50: 1.93 µM
  TGI: >100 µM
CAKI-1
  GI50: 0.53 µM
  TGI: 15.6 µM
  CC50: > 100 µM
UO-31
  GI50: 1.48 µM
  TGI: 32.3 µM
  CC50: > 100 µM
SK-MEL-5
  GI50: 3.53 µM
  TGI: 16.4 µM
  CC50: 88.1 µM
UACC-62
  GI50: 0.5 µM
  TGI: 4.53 µM
  CC50: 74.1 µM
SF-268
  GI50: 1.14 µM
  TGI: >100 µM
  CC50: > 100 µM
SNB-19 [8]
  GI50: 78.5 µM
  TGI: >100 µM
  CC50: > 100 µM
SNB-75 [9]
  GI50: 1.42 µM
  TGI: 41.3 µM
  CC50: > 100 µM

## Sc1ncnc2nc[nH]c12 [6-MP, 6-mercaptopurine]
IGR-OV1 [6]
  GI50: 8.59 µM
  TGI: >100 µM
  CC50: > 100 µM
OVCAR-3 [7]
  GI50: 0.71 µM
  TGI: >100 µM
  CC50: > 100 µM
SK-OV-3
  GI50: 0.97 µM
  TGI: >100 µM
  CC50: > 100 µM
KM12
  GI50: 7.31 µM
  TGI: >100 µM
  CC50: > 100 µM
ACHN
  CC50: > 100 µM
  GI50: 6.3 µM
  TGI: >100 µM
CAKI-1
  GI50: 2.36 µM
  TGI: >100 µM
  CC50: > 100 µM
UO-31
  GI50: 6.52 µM
  TGI: >100 µM
  CC50: > 100 µM
SK-MEL-5
  GI50: 8.59 µM
  TGI: >100 µM
  CC50: > 100 µM
UACC-62
  GI50: 1.63 µM
  TGI: >100 µM
  CC50: > 100 µM
SF-268
  GI50: 4.03 µM
  TGI: >100 µM
  CC50: > 100 µM
SNB-19 [8]
  GI50: > 100 µM
  TGI: >100 µM
  CC50: > 100 µM
SNB-75 [9]
  GI50: 7.93 µM
  TGI: >100 µM
  CC50: > 100 µM
